Measurements reported in ChEMBL document CHEMBL2380283, “Design and synthesis of thiophene dihydroisoquinolines as novel BACE1 inhibitors” (Bioorg Med Chem Lett, 2013).
pIC50: −log10 of the molar value.

Columns and labels:
Beta-secretase 1 [1] = biological target: T1, Beta-secretase 1 (Homo sapiens, UniProt P56817); test: Inhibition of BACE1 (unknown origin) by Alpha screen assay
Cathepsin D = Cathepsin D (Homo sapiens, UniProt P07339); test: Inhibition of cathepsin-D (unknown origin) after 110 mins by fluorescence polarization assay
Beta-secretase 1 [2] = biological target: T1, Beta-secretase 1; test: Inhibition of recombinant BACE1 (unknown origin) expressed in Escherichia coli using biotinylated APP swidesh mutant as substrate incubated for 20 mins prior to substrate addition measured after 3 hrs by fluorescence polarization assay
[3] = Apparent permeability across apical to basolateral side in MDCK cells expressing MDR1 at 5 uM after 120 mins by LC/MS/MS analysis; type: ADME, cell-based, Canis lupus familiaris; conditions: dog

T1 sequence (P56817 whole entry): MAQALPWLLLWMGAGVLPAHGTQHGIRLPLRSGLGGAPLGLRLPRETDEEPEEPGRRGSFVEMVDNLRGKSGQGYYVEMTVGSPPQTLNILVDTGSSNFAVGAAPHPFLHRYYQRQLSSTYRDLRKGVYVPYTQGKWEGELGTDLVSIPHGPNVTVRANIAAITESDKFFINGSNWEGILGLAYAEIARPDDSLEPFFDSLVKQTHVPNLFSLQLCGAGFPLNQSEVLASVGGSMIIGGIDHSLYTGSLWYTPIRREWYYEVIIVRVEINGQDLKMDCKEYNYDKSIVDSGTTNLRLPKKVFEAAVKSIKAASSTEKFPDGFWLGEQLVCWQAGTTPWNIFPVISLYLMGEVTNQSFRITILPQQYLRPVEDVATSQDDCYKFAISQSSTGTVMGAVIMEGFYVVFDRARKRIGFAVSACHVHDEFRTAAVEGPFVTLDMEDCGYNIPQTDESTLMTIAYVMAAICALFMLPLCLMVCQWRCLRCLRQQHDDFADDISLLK
Chain of Cathepsin D (P07339 65-162 limits assumed): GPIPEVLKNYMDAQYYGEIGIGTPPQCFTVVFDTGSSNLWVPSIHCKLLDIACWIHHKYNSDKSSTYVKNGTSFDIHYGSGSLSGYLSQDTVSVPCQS
Chain of Cathepsin D (P07339 169-412 limits assumed): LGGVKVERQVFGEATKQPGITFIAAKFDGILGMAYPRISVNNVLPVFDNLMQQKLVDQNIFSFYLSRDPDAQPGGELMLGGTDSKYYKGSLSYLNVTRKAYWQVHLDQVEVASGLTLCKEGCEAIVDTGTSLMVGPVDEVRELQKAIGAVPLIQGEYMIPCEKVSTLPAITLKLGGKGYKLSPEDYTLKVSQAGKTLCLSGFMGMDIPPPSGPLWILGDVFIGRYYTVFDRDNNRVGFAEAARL

pIC50 (Beta-secretase 1 [1]) | Compound | further results
3.58 | CC1(C)Cc2cc(Cl)ccc2C(N[C@H](Cc2ccccc2)C(=O)O)=N1 | 
5.54 | CC1(C)Cc2cc(Cl)ccc2C(NC(Cc2ccsc2)C(=O)O)=N1 (stereo not drawn) | 
6.51 | CC1(C)Cc2cc(Cl)ccc2C(NC(Cc2cscc2Br)C(=O)O)=N1 (stereo not drawn) | 
5.02 | CC1(C)Cc2cc(Cl)ccc2C(NC(Cc2ccsc2Br)C(=O)O)=N1 (stereo not drawn) | 
6.15 | CC1(C)Cc2cc(Cl)ccc2C(NC(Cc2sccc2Br)C(=O)O)=N1 (stereo not drawn) | 
5.73 | CC1(C)Cc2cc(Cl)ccc2C(NC(Cc2cscc2-c2ccncc2)C(=O)O)=N1 (stereo not drawn) | 
6.09 | CC1(C)Cc2cc(Cl)ccc2C(NC(Cc2cscc2-c2ncco2)C(=O)O)=N1 (stereo not drawn) | 
5.90 | CC1(C)Cc2cc(Cl)ccc2C(NC(Cc2cscc2-c2cc[nH]n2)C(=O)O)=N1 (stereo not drawn) | 
6.35 | CC1(C)Cc2cc(Cl)ccc2C(NC(Cc2cscc2-c2cn[nH]c2)C(=O)O)=N1 (stereo not drawn) | 
5.96 | Cn1cc(-c2cscc2CC(NC2=NC(C)(C)Cc3cc(Cl)ccc32)C(=O)O)cn1 (stereo not drawn) | 
6.20 | CCc1cscc1CC(NC1=NC(C)(C)Cc2cc(Cl)ccc21)C(=O)O (stereo not drawn) | 
6.21 | CCCc1cscc1CC(NC1=NC(C)(C)Cc2cc(Cl)ccc21)C(=O)O (stereo not drawn) | 
6.24 | CC1(C)Cc2cc(Cl)ccc2C(NC(Cc2cscc2CCC2CC2)C(=O)O)=N1 (stereo not drawn) | 
5.61 | CC1(C)Cc2cc(Cl)ccc2C(NC(Cc2cscc2C2CC2)C(=O)O)=N1 (stereo not drawn) | 
6.12 | C#Cc1cscc1CC(NC1=NC(C)(C)Cc2cc(Cl)ccc21)C(=O)O (stereo not drawn) | 
6.29 | CC#Cc1cscc1CC(NC1=NC(C)(C)Cc2cc(Cl)ccc21)C(=O)O (stereo not drawn) | 
8.10 | CCCc1scc(-c2cn[nH]c2)c1CC(NC1=NC(C)(C)Cc2cc(Cl)ccc21)C(=O)O (stereo not drawn) | pIC50 (Cathepsin D): < 4.52; pIC50 (Beta-secretase 1 [2]): 6.40
6.39 | CCCc1scc(-c2cn[nH]c2)c1CC(NC1=NC(C)(C)Cc2cc(Cl)ccc21)c1nccc(=O)[nH]1 (stereo not drawn) | Papp A→B at 2 h, 5 µM [3]: 10 ×10⁻⁶ cm/s; pIC50 (Cathepsin D): < 4.52; pIC50 (Beta-secretase 1 [2]): 4.40
